Test results from ChEMBL document CHEMBL1154879, “Discovery of (thienopyrimidin-2-yl)aminopyrimidines as potent, selective, and orally available pan-PI3-kinase and dual pan-PI3-kinase/mTOR inhibitors for the treatment of cancer” (J Med Chem, 2010).
pIC50: −log10 of the molar value. The source made the active and inactive calls. No cut-off for these calls is given here.

Key:
[1] = target: Phosphatidylinositol 4-phosphate 3-kinase C2 domain-containing subunit alpha (Homo sapiens) (UniProt O00443); test: Inhibition of PIK3C2alpha at 1 uM
Sequence of Phosphatidylinositol 4-phosphate 3-kinase C2 domain-containing subunit alpha (Homo sapiens) (O00443 whole entry, the tested form may be a part): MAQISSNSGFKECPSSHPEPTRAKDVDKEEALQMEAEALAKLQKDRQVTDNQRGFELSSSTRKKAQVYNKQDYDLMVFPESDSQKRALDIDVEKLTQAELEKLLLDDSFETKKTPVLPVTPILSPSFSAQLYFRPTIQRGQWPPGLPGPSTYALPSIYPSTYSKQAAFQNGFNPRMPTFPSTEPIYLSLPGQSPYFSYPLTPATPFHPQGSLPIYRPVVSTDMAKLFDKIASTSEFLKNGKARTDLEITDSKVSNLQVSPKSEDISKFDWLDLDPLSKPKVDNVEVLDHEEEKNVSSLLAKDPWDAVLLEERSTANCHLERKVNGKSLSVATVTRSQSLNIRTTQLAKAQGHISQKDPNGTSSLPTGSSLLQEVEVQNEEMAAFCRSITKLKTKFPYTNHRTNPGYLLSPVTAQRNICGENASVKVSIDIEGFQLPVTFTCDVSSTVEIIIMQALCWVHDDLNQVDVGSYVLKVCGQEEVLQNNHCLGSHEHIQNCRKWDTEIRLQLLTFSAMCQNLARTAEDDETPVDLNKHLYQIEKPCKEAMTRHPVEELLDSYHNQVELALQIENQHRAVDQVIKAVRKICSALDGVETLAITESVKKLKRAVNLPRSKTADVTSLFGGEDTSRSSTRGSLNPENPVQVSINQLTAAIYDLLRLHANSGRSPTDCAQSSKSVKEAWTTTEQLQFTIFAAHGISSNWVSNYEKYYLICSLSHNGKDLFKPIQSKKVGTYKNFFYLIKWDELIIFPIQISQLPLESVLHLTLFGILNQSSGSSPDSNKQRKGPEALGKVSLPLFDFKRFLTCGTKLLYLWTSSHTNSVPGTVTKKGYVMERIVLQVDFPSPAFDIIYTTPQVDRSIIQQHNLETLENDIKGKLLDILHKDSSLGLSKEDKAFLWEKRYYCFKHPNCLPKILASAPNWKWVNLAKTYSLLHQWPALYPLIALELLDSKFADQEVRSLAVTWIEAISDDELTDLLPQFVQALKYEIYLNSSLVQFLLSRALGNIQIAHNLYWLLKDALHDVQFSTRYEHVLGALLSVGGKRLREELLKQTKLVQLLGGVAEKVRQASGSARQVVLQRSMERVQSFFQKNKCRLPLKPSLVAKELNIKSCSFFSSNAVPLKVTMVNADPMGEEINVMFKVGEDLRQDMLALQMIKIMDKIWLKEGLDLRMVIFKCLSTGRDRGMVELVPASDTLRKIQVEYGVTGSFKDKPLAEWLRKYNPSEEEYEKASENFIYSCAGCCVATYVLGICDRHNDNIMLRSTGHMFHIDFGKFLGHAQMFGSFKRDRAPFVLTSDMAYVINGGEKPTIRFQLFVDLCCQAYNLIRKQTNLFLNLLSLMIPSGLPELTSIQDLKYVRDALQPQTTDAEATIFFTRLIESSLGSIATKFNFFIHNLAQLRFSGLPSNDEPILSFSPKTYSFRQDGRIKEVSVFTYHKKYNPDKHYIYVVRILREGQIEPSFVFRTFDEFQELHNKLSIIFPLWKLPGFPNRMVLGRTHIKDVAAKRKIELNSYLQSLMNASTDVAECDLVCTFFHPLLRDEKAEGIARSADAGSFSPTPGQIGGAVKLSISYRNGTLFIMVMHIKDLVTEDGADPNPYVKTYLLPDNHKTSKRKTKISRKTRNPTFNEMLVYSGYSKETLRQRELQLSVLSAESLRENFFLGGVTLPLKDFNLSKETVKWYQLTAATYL

Mus musculus [2] = test: Inhibition of PI3K/Akt/mTOR pathway signaling in PI3Kalpha mutant expressing human MCF7.1 cells xenografted nu/nu mouse assessed as inhibition of Akt Ser473 phosphorylation at 6.25 mg/kg, po qd for 21 days measured 1 hr after last administered dose on day 21 by electrochemiluminescence assay; assay type: functional
Mus musculus [3] = test: Inhibition of PI3K/Akt/mTOR pathway signaling in PI3Kalpha mutant expressing human MCF7.1 cells xenografted nu/nu mouse assessed as inhibition of Akt Ser473 phosphorylation at 12.5 mg/kg, po qd for 21 days measured 1 hr after last administered dose on day 21 by electrochemiluminescence assay; assay type: functional
Mus musculus [4] = test: Inhibition of PI3K/Akt/mTOR pathway signaling in PI3Kalpha mutant expressing human MCF7.1 cells xenografted nu/nu mouse assessed as inhibition of Akt Ser473 phosphorylation at 25 mg/kg, po qd for 21 days measured 4 hrs after last administered dose on day 21 by electrochemiluminescence assay; assay type: functional
Mus musculus [5] = test: Inhibition of PI3K/Akt/mTOR pathway signaling in PI3Kalpha mutant expressing human MCF7.1 cells xenografted nu/nu mouse assessed as inhibition of Pras40 Thr246 phosphorylation at 6.25 mg/kg, po qd for 21 days measured 1 hr after last administered dose on day 21 by ELISA; assay type: functional
Mus musculus [6] = test: Inhibition of PI3K/Akt/mTOR pathway signaling in PI3Kalpha mutant expressing human MCF7.1 cells xenografted nu/nu mouse assessed as inhibition of Pras40 Thr246 phosphorylation at 12.5 mg/kg, po qd for 21 days measured 4 hrs after last administered dose on day 21 by ELISA; assay type: functional
[7] = Antitumor activity against human MCF7.1 cells expressing PI3Kalpha mutant xenografted in nu/nu mouse assessed as inhibition of tumor growth at 50 mg/kg, po qd for 21 days; assay type: functional; conditions: MCF7.1, 504 h, read-out: TGI
Mus musculus [8] = test: Toxicity in human MCF7.1 cells expressing PI3Kalpha mutant xenografted nu/nu mouse assessed as body weight loss at 6.25 mg/kg, po qd for 21 days; assay type: organism-based; parameters: dose 6.25 mg/kg, route oral; conditions: in vivo, 504 h
Mus musculus [9] = test: Toxicity in human MCF7.1 cells expressing PI3Kalpha mutant xenografted nu/nu mouse assessed as body weight loss at 12.5 mg/kg, po qd for 21 days; assay type: organism-based; parameters: dose 12.5 mg/kg, route oral; conditions: in vivo, 504 h
Mus musculus [10] = test: Toxicity in human MCF7.1 cells expressing PI3Kalpha mutant xenografted nu/nu mouse assessed as body weight loss at 50 mg/kg, po qd for 21 days; assay type: organism-based; parameters: dose 50 mg/kg, route oral; conditions: in vivo, 504 h
Mus musculus [11] = test: Inhibition of PI3K/Akt/mTOR pathway signaling in PI3Kalpha mutant expressing human MCF7.1 cells xenografted nu/nu mouse assessed as inhibition of S6RP Ser235/236 phosphorylation at 25 mg/kg, po qd for 21 days measured 1 hr after last administered dose on day 21 by electrochemiluminescence assay; assay type: functional
Aurora kinase A = target: T1, Aurora kinase A (Homo sapiens, UniProt O14965); test: Inhibition of Aurora A kinase
T1 sequence (O14965 whole entry): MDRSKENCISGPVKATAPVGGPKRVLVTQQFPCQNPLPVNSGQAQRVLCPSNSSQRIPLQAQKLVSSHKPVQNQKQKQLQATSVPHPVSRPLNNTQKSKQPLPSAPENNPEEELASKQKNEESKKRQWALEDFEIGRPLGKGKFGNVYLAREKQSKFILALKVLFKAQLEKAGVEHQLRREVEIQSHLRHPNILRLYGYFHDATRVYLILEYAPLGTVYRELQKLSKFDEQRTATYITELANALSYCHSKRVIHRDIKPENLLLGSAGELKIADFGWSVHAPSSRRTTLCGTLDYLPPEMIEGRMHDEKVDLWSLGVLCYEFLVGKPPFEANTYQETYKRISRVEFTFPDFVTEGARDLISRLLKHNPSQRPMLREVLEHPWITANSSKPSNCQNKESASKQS

[12] = target: Tyrosine-protein kinase SYK (Homo sapiens, UniProt P43405); test: Inhibition of SYK
[13] = Clearance in nu/nu mouse at 1 mg/kg, iv; assay type: ADME, organism-based; parameters: dose 1 mg/kg, route intravenous; conditions: in vivo
[14] = Oral bioavailability in nu/nu mouse at 5 mg/kg, po; assay type: ADME, organism-based; conditions: in vivo
[15] = target: Serine/threonine-protein kinase mTOR (Homo sapiens, UniProt P42345)
[16] = target: T2, Phosphatidylinositol 4,5-bisphosphate 3-kinase catalytic subunit delta isoform (Homo sapiens, UniProt O00329)
T2 sequence (O00329 whole entry): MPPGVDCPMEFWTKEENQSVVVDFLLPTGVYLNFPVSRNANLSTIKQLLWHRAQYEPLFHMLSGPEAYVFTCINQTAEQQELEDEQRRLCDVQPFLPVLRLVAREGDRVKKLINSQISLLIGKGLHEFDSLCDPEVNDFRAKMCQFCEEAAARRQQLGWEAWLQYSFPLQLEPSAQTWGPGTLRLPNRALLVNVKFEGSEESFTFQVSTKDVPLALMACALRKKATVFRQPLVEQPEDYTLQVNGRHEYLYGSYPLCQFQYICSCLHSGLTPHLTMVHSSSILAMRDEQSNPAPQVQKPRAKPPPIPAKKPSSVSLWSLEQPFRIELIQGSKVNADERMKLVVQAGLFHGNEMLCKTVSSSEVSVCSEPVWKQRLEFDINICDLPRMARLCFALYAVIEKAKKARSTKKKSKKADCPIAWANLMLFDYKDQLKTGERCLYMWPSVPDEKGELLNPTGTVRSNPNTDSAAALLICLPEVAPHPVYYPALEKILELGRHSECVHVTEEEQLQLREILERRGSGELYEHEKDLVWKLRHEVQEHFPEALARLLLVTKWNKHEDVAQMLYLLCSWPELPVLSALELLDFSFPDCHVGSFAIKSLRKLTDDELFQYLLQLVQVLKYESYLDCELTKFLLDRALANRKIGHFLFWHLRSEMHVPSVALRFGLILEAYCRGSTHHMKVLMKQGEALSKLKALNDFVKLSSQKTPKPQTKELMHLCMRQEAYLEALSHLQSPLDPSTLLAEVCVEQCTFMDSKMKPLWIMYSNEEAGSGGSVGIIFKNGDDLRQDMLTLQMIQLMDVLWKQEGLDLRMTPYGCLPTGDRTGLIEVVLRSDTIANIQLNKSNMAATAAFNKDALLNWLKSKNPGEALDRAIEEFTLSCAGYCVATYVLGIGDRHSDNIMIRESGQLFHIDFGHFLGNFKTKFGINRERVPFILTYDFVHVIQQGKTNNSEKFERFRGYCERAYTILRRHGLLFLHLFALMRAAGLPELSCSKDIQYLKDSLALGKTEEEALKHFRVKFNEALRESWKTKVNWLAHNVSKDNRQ

[17] = target: Phosphatidylinositol 4,5-bisphosphate 3-kinase catalytic subunit gamma isoform (Homo sapiens, UniProt P48736)
Sequence of Phosphatidylinositol 4,5-bisphosphate 3-kinase catalytic subunit gamma isoform (P48736 whole entry, canonical isoform): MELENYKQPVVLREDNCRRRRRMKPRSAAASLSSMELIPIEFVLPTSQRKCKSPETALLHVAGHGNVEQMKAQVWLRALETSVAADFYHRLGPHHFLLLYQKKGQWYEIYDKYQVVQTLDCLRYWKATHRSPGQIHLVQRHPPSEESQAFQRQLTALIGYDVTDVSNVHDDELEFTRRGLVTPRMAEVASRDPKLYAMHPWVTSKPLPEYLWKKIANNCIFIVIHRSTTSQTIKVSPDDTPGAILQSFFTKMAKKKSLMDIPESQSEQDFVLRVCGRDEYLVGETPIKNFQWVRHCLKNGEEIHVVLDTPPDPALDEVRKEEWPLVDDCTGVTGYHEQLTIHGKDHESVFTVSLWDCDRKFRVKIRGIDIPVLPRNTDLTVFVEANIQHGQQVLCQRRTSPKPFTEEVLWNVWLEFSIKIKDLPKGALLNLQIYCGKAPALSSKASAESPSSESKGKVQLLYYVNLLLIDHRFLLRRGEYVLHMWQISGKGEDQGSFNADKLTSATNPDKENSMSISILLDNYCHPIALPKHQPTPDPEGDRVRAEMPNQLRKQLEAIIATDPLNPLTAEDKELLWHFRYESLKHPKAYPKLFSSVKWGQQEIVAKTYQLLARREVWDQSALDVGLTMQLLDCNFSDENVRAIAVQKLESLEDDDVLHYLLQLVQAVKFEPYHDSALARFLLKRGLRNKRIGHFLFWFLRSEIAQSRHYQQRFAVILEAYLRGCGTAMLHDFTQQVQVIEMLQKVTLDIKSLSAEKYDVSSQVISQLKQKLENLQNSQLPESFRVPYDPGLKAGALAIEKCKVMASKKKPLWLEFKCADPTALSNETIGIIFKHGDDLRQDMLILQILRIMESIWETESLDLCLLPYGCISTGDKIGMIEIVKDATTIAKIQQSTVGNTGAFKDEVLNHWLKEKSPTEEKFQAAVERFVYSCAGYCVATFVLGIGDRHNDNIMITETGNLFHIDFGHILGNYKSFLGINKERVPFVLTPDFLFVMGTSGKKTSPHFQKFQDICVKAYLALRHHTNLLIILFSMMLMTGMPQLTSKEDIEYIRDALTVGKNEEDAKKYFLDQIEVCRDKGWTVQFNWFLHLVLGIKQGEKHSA

For Cc1nc(N)ncc1-c1nc(N2CCOCC2)c2sc(C(C)(C)O)cc2n1, the inhibition [1] was “inactive”, the inhibition in vivo at 6.25 mg/kg (Mus musculus [2]) was 81% and the inhibition in vivo at 12.5 mg/kg (Mus musculus [3]) was 83%. For the same compound, the inhibition in vivo at 25 mg/kg (Mus musculus [4]) was 66%, the inhibition in vivo at 6.25 mg/kg (Mus musculus [5]) was 98% and the inhibition in vivo at 12.5 mg/kg (Mus musculus [6]) was 90%. The inhibition in vivo at 50 mg/kg [7] was 88%, the Activity (Mus musculus [8]) was “Non-toxic” and the Activity (Mus musculus [9]) was “Non-toxic”. For the same compound, the Activity (Mus musculus [10]) was “Non-toxic”, the inhibition in vivo at 25 mg/kg (Mus musculus [11]) was 74% and the pIC50 (Aurora kinase A) was less than 6.00. It also gave a pIC50 [12] of less than 6.00, a clearance [13] of 51 mL/min/kg and a bioavailability [14] of 100%. It also gave a pIC50 [15] of 6.12, a pIC50 [16] of 8.28 and a pIC50 [17] of 7.82.
